The text below walks through data of US20210246128A1, “BICYCLE TOPOISOMERASE I INHIBITING COMPOUNDS, PROCESS FOR PREPARATION AND USE THEREOF” (Council of Scientific & Industrial Research, priority 2018, published 2021).

The nature of data set [1]: Lipophilicity assay (octanol/buffer Log D). Conditions: n-octanol/sodium phosphate buffer, pH 7.4.
Procedure: 1.56 g NaH2PO4.2H2O was dissolved in 0.5 L water in a 1 L beaker. After adjusting pH to 7.4 using NaOH solution, the volume was made up to 1 L. Equal volumes of sodium phosphate buffer (10 mM, pH 7.4) and n-octanol were added to a separation funnel and mixed thoroughly by shaking and inverting the funnel several times. The two layers were allowed to separate for 2 days and then dispensed in two separate glass bottles. 10 mM stock solution was prepared in 100% DMSO and stored at 4° C. 500 μL of organic phase (1-octanol) was added to each well of a 2 mL deep well plate, followed by 500 μL of buffer and 15 μL of test substance was added. The plate was vortexed for 1 hr on a plate shaker at 1200 rpm. After incubation, the samples were allowed to equilibrate for 20 min and then centrifuged at 4000 rpm for 30 min for complete phase separation and analysed by LC-UV.
Log D=Log(area of octanol/area of buffer)
Mean, SD and % CV for each set of triplicates were calculated
Data set [2] concerns the target T1, human TopI-DNA cleavage complexes (TopIcc) (Homo sapiens, UniProt P11387).
T1 sequence (P11387 1-765): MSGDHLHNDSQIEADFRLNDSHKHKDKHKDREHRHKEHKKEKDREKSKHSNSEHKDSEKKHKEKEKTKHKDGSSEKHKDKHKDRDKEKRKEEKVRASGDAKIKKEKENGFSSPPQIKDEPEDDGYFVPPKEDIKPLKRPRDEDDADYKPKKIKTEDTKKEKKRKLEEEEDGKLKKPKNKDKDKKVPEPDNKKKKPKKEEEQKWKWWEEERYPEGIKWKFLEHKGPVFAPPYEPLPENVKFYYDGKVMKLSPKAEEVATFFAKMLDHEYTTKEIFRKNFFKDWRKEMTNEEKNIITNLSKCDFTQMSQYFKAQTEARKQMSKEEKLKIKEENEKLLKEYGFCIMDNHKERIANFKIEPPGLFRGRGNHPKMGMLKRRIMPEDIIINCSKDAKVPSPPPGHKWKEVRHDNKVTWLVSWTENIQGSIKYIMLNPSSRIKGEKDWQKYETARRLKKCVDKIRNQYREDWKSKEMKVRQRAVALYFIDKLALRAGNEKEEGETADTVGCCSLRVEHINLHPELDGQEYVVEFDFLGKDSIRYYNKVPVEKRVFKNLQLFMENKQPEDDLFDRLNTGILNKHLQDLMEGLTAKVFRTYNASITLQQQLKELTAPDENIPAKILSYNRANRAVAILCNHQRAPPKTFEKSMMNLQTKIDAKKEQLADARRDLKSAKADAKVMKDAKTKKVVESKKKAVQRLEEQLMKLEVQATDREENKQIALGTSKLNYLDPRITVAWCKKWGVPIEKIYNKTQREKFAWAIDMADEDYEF
Nature of the data set: Plasmid DNA cleavage assay. The class given is biochemical. Conditions: compared with CPT, FIG. 3 and 4. The method, then: Cleavage reaction and electrophoresis in agarose gel were performed as described in B. Kundu, J. Med. Chem. 2019, 62, 3428-3446. Lane 1 comprises 50 fmol of pBluescript (SK^+) supercoiled DNA. Lanes 2-9 are same as lane 1 but incubated with equal amounts (100 fmol) of HTopI at the indicated concentration of CPT or compound 24 or only DMSO.
The mechanism of TopI inhibition with compound 24 in the plasmid DNA cleavage assays was investigated.

Data set [3] in a line: Solubility assay (pH 7.4 pION buffer, UV). In kind it is physicochemical. To be noted: pH 7.4 pION buffer, aqueous buffer, kinetic from dmso stock; pH 7.4 buffer, 18 hours incubation; read-out: Avg. Solubility (μg/mL) at pH 7.4. The method, then:
5 μL of 20 mM DMSO stock from the stock plate was added to the reaction deep well plate containing 495 μL of pH 7.4 pION buffer (including DMSO control) respectively and the samples were mixed and incubated for 18 hours. The plate was sealed well during the incubation process. The DMSO content in the sample was <1.0%. The concentration in deep well plates was 200 μM. 4 μL of 20 mM stock (including DMSO control) was added to 996 μL of acetonitrile to prepare the working stock plate. 75 μL of working stock was added to 75 μL of blank buffer and read on spectrophotometer as reference plate at 240 nm. At the end of the incubation period, 100 μL of sample from storage plate was vacuum filtered using a filter plate. This step wets the filters and the filtrate was discarded. Another 200 μL of the sample from deep well plate was vacuum filtered in to a new filter collection plate. 75 μL of the filtrate from the filter collection plate was transferred to a UV sample plate. 75 μL of acetonitrile was added to this UV plate. The solution was mixed and the spectrum was read using the UV spectrophotometer at 240 nm. Plates were read on spectramax using SoftMax Pro software version 5.3.

A short description of data set [4]: Caco-2 permeability (21 day culture of Caco-2 cell monolayer). The class given is in vitro ADME. Conditions: human; for recovery at 120 min, 10 μM: Caco-2, pH 7.4, Caco-2. A digest of the protocol:
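Caco-2 monolayers grown 21 days, used when TEER >230 ohm·cm2; compound at 10 μM final in HBSS pH 7.4 dosed apical or basal, receiver HBSS with 2% BSA, sampled at 120 min at 37° C. Bidirectional transport quantified by LC-MS/MS against single-point calibration.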
On the technique in general: Caco-2 cells form a polarised layer with tight junctions and transporters.

Values after ≈ are worked out from the molar mass of the structure shown. Read-outs that look alike come from different tables or passages of the source.

For orientation: logD means the decadic logarithm of the distribution of all forms, ionised or not, between an organic phase and buffer at a given pH. Read a low logD as a more hydrophilic compound. For orientation: efflux ratio means a quotient of directional permeabilities that is used to spot active efflux. In the case of `Nc1ccc(-c2ccc3ncc(-c4nnco4)c(NCCCn4ccnc4)c3c2)cn1` [Compound 24, N-(3-(1H-imidazol-1-yl)propyl)-6-(6-aminopyridin-3-yl)-3-(1,3,4-oxadiazol-2-yl)quinolin-4-amine], the logD in data set [1] came to 3.51. Besides, the “stabilisation/trapping of TopI-DNA cleavage complexes (TopIcc)” value in data set [2] was “capable of stabilising TopIcc formation like CPT”. Further, in data set [3], the solubility at 18 h is 27.2 µg/mL (≈ 66 µM). Further, the efflux ratio at 120 min, 10 μM in data set [4] (Caco-2, pH 7.4) came to 4.54. For the same compound, the recovery at 120 min, 10 μM in data set [4] (read-out: A to B % Recovery) is 77.3%; in data set [4] (read-out: B to A % Recovery), 77.7%. Also, the Papp A→B at 120 min, 10 μM in data set [4] (pH 7.4, Caco-2, 10 μM, 120 min, read-out: Papp Apical to Basal) was found to be 6.47 ×10⁻⁶ cm/s. The Papp B→A at 120 min, 10 μM in data set [4] (pH 7.4, Caco-2, 10 μM, 120 min, read-out: Papp Basal to Apical) was found to be 27.4 ×10⁻⁶ cm/s.
